The text below walks through data of patent publication US9073895B2 (Boehringer Ingelheim International GmbH, priority 2010, dated 2015).

The subject of assay [1] is apoE/LDL-R double knockout mice. The settings on record: oral dosing, high-fat diet from 2 months of age to 6 months; cited from earlier work.
In assay [2] the test system is ApoExCD4dnT RII mice. Conditions: infusion, treated for four weeks; cited from earlier work.
Assay [3] has as its system human glomerulonephritis. Conditions: clinical trial; cited from earlier work.
Assay [4] concerns biomarkers for myocardial infarction risk. Conditions: clinical trial; cited from earlier work.
The target in assay [5] is T1, recombinant human FLAP protein (Homo sapiens, UniProt P20292).
T1 construct: made in house; host or cells: Sf9 insect cells (membrane fraction, 100,000 x g pellet)
T1 sequence (P20292 1-161): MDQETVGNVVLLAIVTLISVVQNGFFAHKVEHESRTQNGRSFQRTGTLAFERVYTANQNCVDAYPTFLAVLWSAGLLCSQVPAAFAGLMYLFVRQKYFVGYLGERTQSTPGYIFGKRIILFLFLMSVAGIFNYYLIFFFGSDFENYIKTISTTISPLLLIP
Put plainly: FLAP binding assay (SPA, displacement of [125I]L-691,831). The settings on record: membranes of sf9 cells expressing human FLAP, [125I]L-691,831 probe; read-out: hFLAP binding IC50. The essentials:
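Membranes from sf9 cells expressing human FLAP (5 μg/well) were bound to WGA SPA beads (200 μg/well). Nonspecific binding was defined with 10 μM unlabelled L-691,831.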

Assay [6] relates to synthesis of LTB4 in human whole blood. Put plainly: Human whole blood LTB4 production inhibition assay. Type of assay: cell-based. Conditions: heparinized human whole blood, calcimycin 20 μM, plasma LTB4; read-out: HuWB IC50. The gist of the method:
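LTB4 in plasma was quantified by HTRF immunoassay. Before that, compound-treated heparinized whole blood (15 min, 37 °C) received 20 μM final calcimycin for a further 30 min at 37 °C, followed by centrifugation at 1500×g.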

Turning to `CC(C)c1ccc2c(c1)c(SC(C)(C)C)c(CC(C)(C)C(=O)O)n2Cc1ccc(Cl)cc1` [MK-886], in assay [1], the “decrease in plaque coverage in the aorta” value is 56% and the “decrease in plaque coverage in the aortic root” value is 43%. Besides, in assay [2], the “decrease in plaque area in the aortic root” value was around 40%.

For the molecule `CC(C)(C)Sc1c(CC(C)(C)C(=O)O)n(Cc2ccc(Cl)cc2)c2ccc(OCc3ccc4ccccc4n3)cc12` [MK-591], the effect on proteinuria entry in assay [3] is given as “reduce proteinuria”.

Consider `O=C(O)[C@@H](c1ccc(OCc2ccc3ccccc3n2)cc1)C1CCCC1` [DG-031], for which the “effect on biomarkers for myocardial infarction risk” value in assay [4] is on record as “dose-dependent suppression of several biomarkers”.

As for `Nc1ncc(-c2ccc(C3(C(=O)Nc4cnccn4)CCC3)cc2)cn1` [Example 214, 1-[4-(2-aminopyrimidin-5-yl)phenyl]-N-(pyrazin-2-yl)cyclobutanecarboxamide], the IC50 was 24 nM in assay [5] and 1070 nM in assay [6].

With `Cc1ccc2cc(NC(=O)C3(c4ccc(-c5cnc(N)nc5)cc4)CCOCC3)ccc2n1` [Example 86, 4-[4-(2-aminopyrimidin-5-yl)phenyl]-N-(2-methylquinolin-6-yl)tetrahydro-2H-pyran-4-carboxamide], the values for the IC50 in assay [5] and in assay [6] were 18.7 nM and 412 nM, respectively.

As for `Cn1cc(-c2ccc(NC(=O)C3(c4ccc(-c5cnc(N)nc5)cn4)CCC3)nc2)cn1` [Example 109, 1-[5-(2-aminopyrimidin-5-yl)pyridin-2-yl]-N-[5-(1-methyl-1H-pyrazol-4-yl)pyridin-2-yl]cyclobutanecarboxamide], the 50% inhibitory concentration (IC50) is 9.4 nM in assay [5] and 2100 nM in assay [6].

Turning to `Nc1ncc(-c2ccc(C3(C(=O)Nc4ccc(-n5ccnc5)cc4)CCOCC3)cc2)cn1` [Example 154, 4-[4-(2-aminopyrimidin-5-yl)phenyl]-N-[4-(1H-imidazol-1-yl)phenyl]tetrahydro-2H-pyran-4-carboxamide], the values for the IC50 in assay [5] and in assay [6] were 63.3 nM and 1370 nM, respectively.

With `Nc1ncc(-c2ccc(C3(C(=O)Nc4ccc(Cc5ccccc5)cc4)CCOCC3)cc2)cn1` [Example 54, 4-[4-(2-aminopyrimidin-5-yl)phenyl]-N-(4-benzylphenyl)tetrahydro-2H-pyran-4-carboxamide], the IC50 in assay [5] was determined as 44.5 nM; in assay [6], 1120 nM.

Turning to `Cc1nccn1-c1ccc(NC(=O)C2(c3ccc(-c4cnc(N)nc4)cc3)CCOCC2)cc1` [Example 224, 4-[4-(2-aminopyrimidin-5-yl)phenyl]-N-[4-(2-methyl-1H-imidazol-1-yl)phenyl]tetrahydro-2H-pyran-4-carboxamide], the IC50 in assay [5] is 30 nM; in assay [6], 718 nM.

As to `CS(=O)(=O)c1ccc(NC(=O)C2(c3ccc(-c4cnc(N)nc4)cn3)CCC2)cc1` [Example 107, 1-[5-(2-aminopyrimidin-5-yl)pyridin-2-yl]-N-[4-(methylsulfonyl)phenyl]cyclobutane-carboxamide], the IC50 amounted to 87 nM in assay [5] and 1100 nM in assay [6].

Turning to `COc1ccc(-c2ccc(NC(=O)C(C)(c3ccc(-c4cnc5c(c4)CCN5)cc3)C(C)C)nc2)cn1` (centres unmarked) [Example 164, 2-[4-(2,3-dihydro-1H-pyrrolo[2,3-b]pyridin-5-yl)phenyl]-N-(6'-methoxy-3,3'-bipyridin-6-yl)-2,3-dimethylbutanamide], the concentration for half-maximal inhibition (IC50) in assay [5] was 1.9 nM; in assay [6] it was 315 nM.

With `Nc1ncc(-c2ccc(C3(C(=O)Nc4cccc(Oc5ccccc5)c4)CCOCC3)cc2)cn1` [Example 22, 4-[4-(2-aminopyrimidin-5-yl)phenyl]-N-(3-phenoxyphenyl)tetrahydro-2H-pyran-4-carboxamide], the 50% inhibitory concentration (IC50) in assay [5] was 60.5 nM; in assay [6], above 3000 nM.

In the case of `Cc1ccc2nc(NC(=O)C3(c4ccc(-c5cnc(N)nc5)cc4)CCOCC3)sc2c1` [Example 8, 4-[4-(2-aminopyrimidin-5-yl)phenyl]-N-(6-methyl-1,3-benzothiazol-2-yl)tetrahydro-2H-pyran-4-carboxamide], the IC50 turned out to be 25 nM in assay [5] and 3560 nM in assay [6].

In the case of `COc1cncc(-c2ccc(C(C)(C(=O)Nc3cccc(-c4csc(C)n4)c3)C(C)C)cc2)c1` (centres unmarked) [Example 113, 2-[4-(5-methoxypyridin-3-yl)phenyl]-2,3-dimethyl-N-[3-(2-methyl-1,3-thiazol-4-yl)phenyl]butanamide], the figures for the IC50 in assay [5] and in assay [6] were 390 nM and 10400 nM, respectively.

`CCOC(=O)c1sc2ccc(NC(=O)C3(c4ccc(-c5cnc(N)nc5)cc4)CCOCC3)cc2c1C` [Example 43, ethyl 5-[({4-[4-(2-aminopyrimidin-5-yl)phenyl]tetrahydro-2H-pyran-4-yl}carbonyl)amino]-3-methyl-1-benzothiophene-2-carboxylate]: the values for the IC50 in assay [5] and in assay [6] were 12.3 nM and above 3000 nM, respectively.

Consider `Cn1ccc(NC(=O)C2(c3ccc(-c4cnc(N)nc4)cc3)CCC2)n1` [Example 222, 1-[4-(2-aminopyrimidin-5-yl)phenyl]-N-(1-methyl-1H-pyrazol-3-yl)cyclobutanecarboxamide], for which the concentration for half-maximal inhibition (IC50) in assay [5] turned out to be 43.5 nM; in assay [6], 1230 nM.

On to `COc1ccc(NC(=O)C2(c3ccc(-c4cnc(N)nc4)cc3)CCOCC2)cn1` [Example 2, 4-[4-(2-aminopyrimidin-5-yl)phenyl]-N-(6-methoxypyridin-3-yl)tetrahydro-2H-pyran-4-carboxamide], for which the IC50 in assay [5] is 210 nM; in assay [6] it was 1370 nM.

Consider `COC(=O)c1sc(-c2ccccc2)cc1NC(=O)C1(c2ccc(-c3cnc(N)nc3)cc2)CCOCC1` [Example 30, methyl 3-[({4-[4-(2-aminopyrimidin-5-yl)phenyl]tetrahydro-2H-pyran-4-yl}carbonyl)amino]-5-phenylthiophene-2-carboxylate], for which the IC50 in assay [5] was 18 nM; in assay [6] it was 2240 nM.

What is called IC50 is the concentration at which inhibition is half-maximal.
